The record followed here is US20220168295A1, “RIMEGEPANT FOR CGRP RELATED DISORDERS” (Biohaven Pharmaceutical Ireland DAC, priority 2018, published 2022).

The subject of data set [1] is subjects with Acute Migraines. Nature of the data set: Study 303 (BHV3000-303) Phase 3 placebo-controlled trial, rimegepant 75 mg ODT, acute treatment of migraine: efficacy and safety. It counts as in vivo, human. The protocol:
Clinical Trial—BHV3000-303: Phase 3: Double-Blind, Randomized, Placebo-Controlled, Safety and Efficacy Trial of BHV-3000 (Rimegepant) Orally Discintegrating Tablet (ODT) for the Acute Treatment of Migraine (ClinicalTrials.gov Identifier: NCT03461757) A phase 3 clinical study was conducted with 1812 participants, as follows. […] Pain freedom of rimegepant compared with placebo in the acute treatment of migraine will be measured using the number of evaluable subjects that report no pain at 2 hours post-dose. […] Pain will be measured on a 4 point Likert scale (0=none, 1=mild, 2=moderate, 3=severe) 2. Freedom from the most bothersome symptom (MBS) of rimegepant compared with placebo will be measured using the number of evaluable subjects that report the absence of their MBS at 2 hours post-dose. […] The MBS (nausea, phonophobia or photophobia) will measured using a binary scale (0=absent, 1=present). […] Pain Relief as measured by a 4 point numeric rating scale (None, Mild, Moderate, Severe) 2. […] Sustained Pain Relief as measured by a 4 point numeric rating scale (None, Mild, Moderate, Severe) 4. […] To measure rimegepant compared to placebo on the probability of requiring rescue medication will be assessed using the number of subjects that take rescue medication within […] administration of study medication (BHV3000 or placebo). […]

Data set [2] is described as follows: Pooled liver function test (LFT) profile, Study 301 and Study 302. The data set is classed as in vivo, human. Conditions: pooled Study 301 and 302; n = 1089. The protocol:
(§1) In a double-blind, randomized, placebo-controlled, multicenter study (Study 301, NCT03235479) adults 3.8 years of age with at least a 1-year history of ICHD 3-beta migraine were eligible to participate. Following a 3- to 28-day screening period, subjects were randomized to receive rimegepant 75 mg or matching placebo and instructed to treat a single migraine attack with 1 dose of the blinded study drug (rimegepant or placebo) when headache pain reached moderate or severe intensity. The coprimary endpoints were pain freedom at 2 hours postdose and freedom from the most bothersome symptom (MBS) at 2 hours postdose. Safety assessments included adverse events (AEs), ECGs, vital signs, physical measurements, and routine laboratory tests, including assessment of liver function. Unless stated otherwise, values presented are mean±SD.
as §1, with “302, NCT03237845)” for “301, NCT03235479)”, “≥18” for “3.8”

Each structure is given as a SMILES string.

Take `N[C@@H]1c2cccnc2[C@H](OC(=O)N2CCC(n3c(=O)[nH]c4ncccc43)CC2)CC[C@H]1c1cccc(F)c1F` [Rimegepant, [(5S,6S,9R)-5-amino-6-(2,3-difluorophenyl)-6,7,8,9-tetrahydro-5H-cyclohepta[b]pyridin-9-yl] 4-(2-oxo-3H-imidazo[4,5-b]pyridin-1-yl)piperidine-1-carboxylate]: the “Patients with LFTs >3xULN” value in data set [1] is listed as “one”. In addition, in data set [2], the “ALT >3x ULN, subjects n (%)” value is given as 1 (0.1%) n (%); the “ALT >5x ULN, subjects” value is reported as 0; the “ALT >10x ULN, subjects” value came out at 0; the “ALT >20x ULN, subjects” value was 0. Further, in data set [2], the “ALT >ULN, subjects n (%)” value was 22 (2.0%) n (%); the “AST >3x ULN, subjects n (%)” value is on record as 1 (0.1%) n (%); the “AST >5x ULN, subjects” value stood at 0; the “AST >10x ULN, subjects” value came out at 0. In data set [2], the “AST >20x ULN, subjects” value amounted to 0 and the “AST >ULN, subjects n (%)” value was 12 (1.1%) n (%).
